These results are taken from US9708265B2, “Urethanes, ureas, amidines and related inhibitors of factor Xa” (priority 2010, dated 2017).

For one assay, the target named is factor Xa (Homo sapiens, UniProt P00742). Nature of the assay: Activity towards factor Xa in vitro (initial rate of decomposition of substrate S-2222). It is filed as biochemical. The note with it: substrate S-2222 164 μM, room temperature, pH 7.5, 10 min preincubation; Ki calculated from IC50. As for the experimental part: For some compounds depicted in the above examples, there has been measured a constant of activity of these substances towards the factor Xa in vitro—Ki. The measurements were carried out kinetically, in terms of the initial rate of decomposition of the substrate S-2222 by the protein. The measurements were carried out at room temperature in 2 ml rectangular quartz cuvettes. In the reaction there was used a solution: 50 mM Tris-HCl, 150 mM NaCl, 2.5 mM CaCl2, and 0.1% PEG 6000, pH 7.5, factor Xa […], S-2222 164 μM. The standard least-squares method was used for determining Km for certain concentrations of the protein and substrate. Before the reaction, the protein and the active agent in the solution were under thermostatic control for 10 min; then the substrate was added and the reaction was initiated. The reaction rate was measured with a Specord M80 instrument from a change in the light absorption at a wavelength of 405 nm. The IC50 values were determined from the experimentally obtained dependence of the initial rates on the concentration of the inhibitor (active agent). The Ki values were calculated from the concentrations of the protein, substrate, and inhibitors; the IC50 values, by the method described in (1) Jordan, S. P.; Waxman, L.; Smith, D. E.; Vlasik, G. P. Biochemistry 1990, 29, 11095 and (2) Morrison, J. F. Biochim Biophys. Acta 1969, 185, 269.

Another assay relates to human blood plasma. Nature of the assay: Prothrombin time in human blood plasma in vitro (Diahem P kit). The conditions noted are these: 3 min incubation, average of 3 measurements. The protocol:
For some compounds depicted in the above examples, there has been measured the concentration of these compounds in human blood plasma, at which the prothrombin time of plasma is twice as much—2PT. The measurements were carried out with the aid of a Diahem P kit (NPO Renam, www.renam.ru) by a method described in the instruction for users of the kit. The active compound was dissolved in a blood plasma provided in the kit and was incubated for 3 min. The measurements were carried out with a Sysmex CA 50 instrument. For each concentration, there were taken 3 measurements and the result was averaged.

SMILES strings stand for the structures.

Sequence of factor Xa (P00742 235-488 limits assumed): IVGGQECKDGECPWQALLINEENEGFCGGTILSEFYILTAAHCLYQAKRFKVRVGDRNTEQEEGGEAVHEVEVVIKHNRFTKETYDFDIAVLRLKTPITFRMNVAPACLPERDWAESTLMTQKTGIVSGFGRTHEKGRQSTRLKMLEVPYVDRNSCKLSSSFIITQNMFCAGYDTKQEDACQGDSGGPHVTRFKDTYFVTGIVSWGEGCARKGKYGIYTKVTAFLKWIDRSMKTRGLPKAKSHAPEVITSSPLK
Sequence of factor Xa (P00742 41-179 partner limits assumed): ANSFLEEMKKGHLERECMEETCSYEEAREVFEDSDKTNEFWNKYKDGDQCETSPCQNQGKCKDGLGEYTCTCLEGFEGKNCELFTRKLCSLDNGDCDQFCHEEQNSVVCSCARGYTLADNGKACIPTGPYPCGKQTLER

On to `CNC(=O)N(C)c1ccc(C(=O)Nc2ccc(Cl)cc2C(=O)Nc2ccc(Cl)cn2)cc1` [Example 17, N-(5-chloropyridine-2-yl)-2-[(4-methyl(methylcarbamoyl)aminophenylcarbonyl)amino]-5-chlorobenzamide], for which the Ki on factor Xa is 0.15 nM.

Regarding `CC(=N)N(C)c1ccc(C(=O)Nc2ccccc2C(=O)Nc2ccc(Cl)cn2)c(OCCCN)c1` [Example 5, N-(5-chloropyridine-2-yl)-2-[4-(ethaneimidoylmethylamino)-2-(3-aminopropoxy)phenylcarbonyl-amino]benzamide], in the assay with human blood plasma, the “2 × PT (concentration at which the prothrombin time of plasma is twice as much)” value (from here on “2 × PT”) came to 0.2 µM. For the same compound, the Ki at factor Xa is 0.5 nM.

Consider `CC(=N)N(C)c1ccc(C(=O)Nc2ccc(C)cc2C(=O)Nc2ccc(Cl)cn2)c(F)c1` [Example 11], for which, in the assay on human blood plasma, the “2 × PT” value came to 0.09 µM. The inhibition constant Ki at factor Xa was 0.8 nM.

As for `CC(=N)N(C)c1ccc(C(=O)Nc2ccc(Cl)cc2C(=O)Nc2ccc(Cl)cn2)cc1` [Example 3, N-(5-chloropyridine-2-yl)-2-[(4-ethaneimidoyl-methyl-aminophenylcarbonyl)amino]-5-chlorobenzamide], the Ki on factor Xa was 0.3 nM.

On to `CC(=N)N(C)c1cc(F)c(C(=O)Nc2ccc(Cl)cc2C(=O)Nc2ccc(Cl)cn2)c(OCCCN)c1` [Example 10, N-(5-chloropyridine-2-yl)-2-[2-(3-aminopropoxy)-6-fluoro-4(ethaneamidoylmethylamino)phenylcarbonylamino]-5-chlorobenzamide], for which the “2 × PT” value in the assay with human blood plasma stood at 0.15 µM. On factor Xa, the Ki is 0.4 nM.

`CC(=N)N(C)c1ccc(C(=O)Nc2ccc(Cl)cc2C(=O)Nc2ccc(Cl)cn2)c(F)c1` [Example 12]: the “2 × PT” value with human blood plasma came out at 0.09 µM. The inhibitory constant (Ki) on factor Xa was 1 nM.

As for `CNC(=N)N(C)c1ccc(C(=O)Nc2ccc(Cl)cc2C(=O)Nc2ccc(Cl)cn2)cc1` [Example 16], in the assay on human blood plasma, the “2 × PT” value was 1.5 µM. Besides, the Ki on factor Xa is 0.5 nM.

In the case of `COc1ccc(NC(=O)c2ccc(N(C)C(C)=N)cc2)c(C(=O)Nc2ccc(Cl)cn2)c1` [Example 4, N-(5-chloropyridine-2-yl)-2-[(4-ethaneimidoyl-methyl-aminophenylcarbonyl)amino]5-methoxybenzamide], on factor Xa, the Ki is 1 nM.

As to `CC(=N)N(C)c1ccc(C(=O)Nc2ccccc2C(=O)Nc2ccc(Cl)cn2)cc1` [Example 1, N-(5-chloropyridine-2-yl)-2-[(4-ethaneimidoyl-methylaminophenylcarbonyl)amino]benzamide], at factor Xa, the Ki is 2 nM.

As to `COC(=N)N(C)c1ccc(C(=O)Nc2ccc(C)cc2C(=O)Nc2ccc(Cl)cn2)cc1` [Example 14, N-(5-chloropyridine-2-yl)-2-[(4-(imino(methoxy)methyl)(methyl)aminophenylcarbonyl)amino]5-methylbenzamide], the Ki at factor Xa is 2 nM.

As for `CNC(=N)N(C)c1ccc(C(=O)Nc2ccc(C)cc2C(=O)Nc2ccc(Cl)cn2)cc1` [Example 15], in the assay with human blood plasma, the “2 × PT” value was determined as 1.5 µM. Besides, the Ki at factor Xa was 0.5 nM.

As to `CNC(=O)N(C)c1ccc(C(=O)Nc2ccc(C)cc2C(=O)Nc2ccc(Cl)cn2)cc1` [Example 18], the “2 × PT” value in the assay with human blood plasma turned out to be 3.0 µM. At factor Xa, the Ki was 0.15 nM.

For `CNC(=O)N(C)c1ccc(C(=O)Nc2ccc(C)cc2C(=O)Nc2ccc(Cl)cn2)c(OCCCN)c1` [Example 19], the “2 × PT” value with human blood plasma was 1.0 µM. On factor Xa, the Ki was 0.2 nM.

For `CNC(=O)N(C)c1ccc(C(=O)Nc2ccc(Cl)cc2C(=O)Nc2ccc(Cl)cn2)c(OCCCN)c1` [Example 20], in the assay with human blood plasma, the “2 × PT” value worked out at 1.0 µM. Further, the Ki on factor Xa is 0.2 nM.

For `CC(=N)N(C)c1ccc(C(=O)Nc2ccc(Cl)cc2C(=O)Nc2ccc(Cl)cn2)c(OCCCN)c1` [Example 7, N-(5-chloropyridine-2-yl)-2-[4-(ethaneimidoylmethylamino)-2-(3-aminopropoxy)phenylcarbonylamino]-5-chlorobenzamide], the Ki on factor Xa was 0.5 nM.

On to `CC(=N)N(C)c1ccc(C(=O)Nc2ccc(C)cc2C(=O)Nc2ccc(Cl)cn2)c(OCCCN)c1` [Example 6], for which the “2 × PT” value with human blood plasma is 0.2 µM. Also, on factor Xa, the Ki is 0.5 nM.

With `CC(=N)N(C)c1ccc(C(=O)Nc2ccc(C)cc2C(=O)Nc2ccc(Cl)cn2)c(OCCCNC(C)=O)c1` [Example 13, N-(5-chloropyridine-2-yl)-2-[4-(ethaneimidoylmethylamino)-2-(3-(acetylamino)propoxy)phenylcarbonylamino]-5-methylbenzamide], the “2 × PT” value with human blood plasma worked out at 1.5 µM. Moreover, the Ki on factor Xa is 0.5 nM.

For the compound `CC(=N)N(C)c1cc(F)c(C(=O)Nc2ccc(C)cc2C(=O)Nc2ccc(Cl)cn2)c(OCCCN)c1` [Example 9, N-(5-chloropyridine-2-yl)-2-[4-(ethaneimidoylmethylamino)-2-(3-aminopropoxy)-6-fluorophenylcarbonylamino]-5-methylbenzamide], the “2 × PT” value with human blood plasma amounted to 0.15 µM. For the same compound, the Ki on factor Xa was 0.4 nM.

For the compound `COc1ccc(NC(=O)c2ccc(N(C)C(C)=N)cc2OCCCN)c(C(=O)Nc2ccc(Cl)cn2)c1` [Example 8, N-(5-chloropyridine-2-yl)2-[4(ethaneimidoylmethylamino)-2-(3-aminopropoxy)phenylcarbonyl-amino]-5-methoxybenzamide], in the assay on human blood plasma, the “2 × PT” value was 0.2 µM. Moreover, the Ki on factor Xa is 0.5 nM.

Turning to `CC(=N)N(C)c1ccc(C(=O)Nc2ccc(C)cc2C(=O)Nc2ccc(Cl)cn2)cc1` [Example 2, N-(5-chloropyridine-2-yl)-2-[(4-ethaneimidoyl-methyl-aminophenylcarbonyl)amino]5-methylbenzamide], on factor Xa, the Ki is 0.5 nM.

One may read the Ki as the equilibrium dissociation constant of an inhibitor or competing ligand from its target.
